# Laboratory results reported in patent publication US20140100419A1, “ACTIVE VITAMIN D OR ANALOGS THEREOF FOR USE IN IN VIVO OR IN VITRO FERTILIZATION” (priority 2011, published 2014).
# Legend:
# Format in all cases: cell-based
# human spermatozoa [1] = test: Intracellular calcium [Ca2+]i in fura-2 loaded human spermatozoa; settings: for increase in [Ca2+]i after addition of 1 mM calcium: calcium free media, calcium added after treatment
# Description: (§1) Calcium measurements and the acrosome reaction were performed on motile spermatozoa isolated after percoll density gradient centrifugation (Supra sperm gradients, (ORIGO)) following the manufacturer's instructions. Briefly, spermatozoa were separated from seminal plasma by centrifugation on a discontinuous percoll gradient using a two-step gradient comprising 2 ml layers of 55% and 80% percoll respectively. Semen was placed on the top of the gradient and centrifuged at 300×g for 25 min. The spermatozoa at the base of the 80% fraction were collected and washed with a 5 ml volume of capacitating medium (CaCl2 1.5 mM, KCl 4.3 mM, NaHCO3 31 mM, HEPES 15 mM, Human Serum Albumin 5 mg/ml, Glucose 4.5 mM, Sodium Pyruvate 0.8 mM, Synthetic Serum Replacement, 0.5 ug/ml human recombinant insulin (Sperm preparation media (ORIGO)) and finally resuspended in capacitating media and used for the following assays of calcium measurements and acrosome reaction. All men were part of the above mentioned ongoing surveillance program of semen quality among young Danish men and included after approval from the local ethical committee (No. H-4-2010-016).
# Semen samples were separated by percoll density gradient centrifugation to ensure viable and motile spermatozoa and resuspended in capacitating media for 1.5 hours. Afterwards, loaded with 3 μM of the fluorescent probe (intracellular calcium binding) fura-2/AM (Invitrogen, USA) for 30 min, centrifuged (10 min at 300 g) and washed with Krebs-Ringer buffer (120 mM NaCl, 15 mM NaHCO3, 5 mM KCl, 1 mM CaCl2, 5 mM Na2HPO4, 1 mM MgCl2 pH 7.3). […] Subsequently, 80 μl of the sperm sample was diluted in 920 μl Krebs-Ringer buffer and loaded on polylysine-coated chambers to minimize movement of the spermatozoa (Lab-Tek; Nalge Nunc International, USA). A Zeiss Axiovert 135 microscope equipped with a Zeiss Achrostigmat 40×1.3 NA objective was used to acquire images from the fluorescent probe. Excitation was obtained by a Polychrome Villuminator from Till Photonics (Germany) and images were acquired using a Cool Snap CCD camera (Photometrics, USA) from Robert Scientific (Malaysia). For measurements of [Ca2+]i, the excitation wavelengths were 338 and 380 nm, measuring emission above 510 nm using a cut-off filter. […] After background subtraction, ratio images were formed using MetaFluor software.
# All experiments started by using low magnification to ensure visibility of several spermatozoa simultaneously. […] All measurements of [Ca^2+], were based upon evaluation of at least three spermatozoa simultaneously (see exact number in figure legends), and were repeated in at least three separate experiments. We used 10 different semen donors to ensure that all experiments were reproduced on semen samples from at least two different men.
# human spermatozoa [2] = test: Sperm motility of washed spermatozoa with or without percoll gradient centrifugation
# [3] = system: zona pellucida (ZP) of human oocytes; test: Human sperm-zona pellucida interaction (sperm-egg binding) test
# Description: We used the Human sperm-zona pellucida interaction test that is designed to determine the capacity of sperm to interact with the zona pellucida (ZP) of human oocytes and serves thus as a test for evaluating fertility potential of human spermatozoa. The tests provide important diagnostic information about sperm fertilising ability and we used a modified version of the test developed by Liu and Baker (Liu and Baker hum reprod 1999 Defective sperm-zona pellucida interaction: a major cause of failure of fertilization in clinical in-vitro fertilization).
# If the oocyte had sperm bound to the ZP from the IVF insemination, these were removed by aspiration using a fine glass pipette with an inner diameter (120 μm) slightly smaller than the oocyte diameter. […] Oocytes with >10 sperm penetrating the ZP were not used. Also degenerate, activated or morphologically abnormal oocytes were not used for the sperm-ZP interaction test. Oocytes were pooled from several patients and used for the test on the same day or kept in the incubator and used within the next 20 days. Between 15-30 oocytes was placed in 1 ml salt solution (storage 2-4 weeks). Salt-stored human oocytes were washed with gamete buffer (COOK) with four changes in 3 hours before they were used for the sperm-egg binding test.
# Semen samples from five donors were used. […] The washed sperm pellet was resuspended with sEBSS to a sperm concentration of 2×10^6/ml for the ZP-interaction test. For the assessment of the sperm concentration the samples were diluted following the manufactures instruction and subsequently determined using SP-100 (Chemometec).
# For the sperm-ZP interaction tests, either high quality sperm or total sperm sample (2×10^6) in 0.5 ml of medium (+/−1 nM Calcitriol) were incubated with three oocytes for 2 h at 37° C. in 5% CO2 in air. After incubation, the oocytes were transferred to sEBSS and washed by repeated aspiration with a glass pipette (inside diameter approximately 250 μm) to dislodge sperm loosely adhering to the surface of the ZP. Sperm binding to all oocytes was assessed.
# human spermatozoa [4] = test: Sperm motility (ABC) in semen samples exposed to 1,25(OH)2D3
# Description: The participants produced a semen sample by masturbation. Self-reported information of duration of ejaculation abstinence was obtained. Trained technicians conducted semen analysis and a detailed description of assessment of semen samples has previously been published. Semen volume was estimated by weighing. For sperm motility assessment, duplicates of 10 μl of well-mixed semen were placed on a glass slide, examined on a heating stage kept at 37° C., under a microscope at ×400 magnification, and spermatozoa were classified as progressive motile (WHO class A+B), non-progressive motile (class C) or immotile (class D). The average of the two motility assessments was used. For the assessment of the sperm concentration the samples were diluted in a solution of 0.6 mol/l NaHCO3 and 0.4% (v/v) formaldehyde in distilled water, and subsequently assessed using Bürker-Türk haemocytometer. Only spermatozoa with tails were counted. Finally, smears were prepared, Papanicolaou stained and spermatozoa morphology assessed according to strict criteria (Menkveld et al., 1990).
# Semen samples for the in vitro studies were obtained from 40 men from the general population, who were investigated between October 2009 and December 2010. Their semen samples were assessed as described above. […] Motility assessment was conducted in 17 samples (in duplicates) under non-capacitating conditions (in their seminal plasma), and 3 samples were also analyzed in capacitating conditions. 7 consecutively included men were used to investigate a dose-response relationship between VD and sperm motility.
# human spermatozoa [5] = test: Acrosome reaction (PSA-FITC staining)
# Description: as §1
# Acrosome status was assessed according to a modified version of the method described by Cross et al. 1986. Motile spermatozoa were isolated by percoll gradient centrifugation, washed twice with 5 ml 0.9% sodium chloride followed by centrifugation at 300×g for 10 min. […] The smear and cytospin were fixed in 96% ethanol for 5 min after air drying, washed in distilled water and stained for minimum 2 hours with Pisum sativum agglutinin labelled with fluorescein isothiocyanate (Sigma Aldrich) in Dulbecco phosphate buffered saline at 4° C. Finally, the slides were washed in distilled water and mounted with Vectrashield (H-1080 Vectar Laboratories) and 200 spermatozoa were counted on each slide using a fluorescence microscope at a magnification of 400×. The mean percentage of acrosome-reacted spermatozoa of the two slides was calculated. When more than half the head of a spermatozoon was brightly and uniformly fluorescent, the acrosome was considered to be intact. Spermatozoa without fluorescence or with a fluorescing band limited to the equatorial segment were considered to be acrosome-reacted. Spermatozoa with a fluorescing band limited to the equatorial segment were named eq-AR. The person assessing the slides was blinded to the treatment of the sample.
# [6] = 1 nM 1,25(OH)2D3 after pretreatment with nifedipine 10 μM
# [7] = calcium free media with 5 μM EGTA
compound,measurement,setting,value
"C[C@H](CCC(=O)O)C[C@H](C)C[C@H](C)C(=O)/C=C(\O)[C@H](C)C[C@H](C)C/C=C/[C@@H](C)[C@@H](O)[C@@H](C)[C@@H](O)C[C@@H]1CC[C@@](C)([C@H]2CC[C@@](C)([C@@H](C)O)O2)O1 [Ionomycin, ionomycin]",amplitude of calcium response from baseline,"human spermatozoa [1]; ionomycin 500 nM, calcium free media with EGTA",< 3 fold
C=C1/C(=C\C=C2/CCC[C@]3(C)[C@@H]([C@H](C)/C=C/[C@@H](O)C4(C(=O)OCCCC)CC4)CC[C@@H]23)C[C@@H](O)C[C@@H]1O [ZK159222],"effect on calcium increase by 1,25(OH)2D3","human spermatozoa [1]; Example 4, pre-treatment with 100 nM ZK159222 (FIG. 5)",unable to influence
same,"effect of antagonist on calcium response to 1,25(OH)2D3","human spermatozoa [1]; ZK159222 0.1-100 μM, data not shown",unable to abrogate or suppress
"COc1ccc2c(c1)CC[C@@H]1[C@@H]2CC[C@]2(C)[C@@H](NCCCCCCN3C(=O)C=CC3=O)CC[C@@H]12 [U73122, 1-[6-[[17fi-3-methoxyestra-1,3,5(10)-trien-17-yl]amino]hexyl]-lH-pyrrole-2,5-dione]",increase of baseline [Ca2+]i,human spermatozoa [1]; 10 μM U73122,more than 5 fold
same,proportion of spermatozoa with increased baseline [Ca2+]i,human spermatozoa [1]; 10 μM U73122,> 80%
same,effect of PLC inhibition on the effect of progesterone,"human spermatozoa [1]; U73122, data not shown",unable to abrogate
C/C=C(/C)C(=O)O[C@H]1C(C)=C2[C@H]([C@@H]1OC(=O)CCCCCCC)[C@@](C)(OC(C)=O)C[C@H](OC(=O)CCC)[C@@]1(O)[C@H]2OC(=O)[C@@]1(C)O [thapsigargin],stable plateau of calcium concentration versus baseline,"human spermatozoa [1]; thapsigargin 4 μM, nine minutes after exposure",3 fold
same,"effect on calcium response to 1,25(OH)2D3",human spermatozoa [1]; thapsigargin <1 μM,unable to abrogate
"C=C1CC[C@H](O)C/C1=C/C=C1\CCC[C@]2(C)[C@@H]([C@H](C)CCCC(C)(C)O)CC[C@@H]12 [25-OH D3, 25-OH Vitamin D3]",increase in [Ca2+]i,human spermatozoa [1]; 25-OH D3 100 nM,unable to elicit an increase
same,increase of [Ca2+]i,"human spermatozoa [1]; Example 4, 25-OHD3 in the nanomolar range","unable to increase [Ca^2+], substantially"
same,increase of [Ca2+]i,"human spermatozoa [1]; Example 4, higher concentrations of 25-OHD3 (1 μM, FIG. 7)",marked but delayed increase
"C=C1/C(=C\C=C2/CCC[C@]3(C)[C@@H]([C@H](C)CCCC(C)(C)O)CC[C@@H]23)C[C@@H](O)C[C@H]1O [1β,25(OH)2D3, 1β,25-(OH)2D3]",effect on calcium effect of progesterone,human spermatozoa [1]; Example 4,did not abrogate
same,"effect on calcium response to 1,25(OH)2D3","human spermatozoa [1]; Example 4, non-genomic competitive antagonist","abrogated the response to 1,25(OH)2D3 completely"
same,"effect of pretreatment on calcium response to 1,25(OH)2D3 (VD response)","human spermatozoa [1]; pretreatment with 1-40 μM 1β,25(OH)2D3",blocked completely
"C=C1/C(=C\C=C2/CCC[C@]3(C)[C@@H]([C@H](C)CCCC(C)(C)O)CC[C@@H]23)C[C@@H](O)C[C@@H]1O [1,25(OH)2D3, 1,25-dihydroxycholecalciferol]",threshold for the all-or-nothing calcium response,human spermatozoa [1],10 to 50 µM
same,time until calcium levels restore back to baseline,human spermatozoa [1],≤ 2 min
same,max amplitude relative to max amplitude elicited by 10 μM progesterone,"human spermatozoa [1]; 1 nM 1,25(OH)2D3",40-80%
same,maximum amplitude of calcium increase versus baseline calcium level,"human spermatozoa [1]; 1 nM 1,25(OH)2D3",5-10 fold
same,amplitude of calcium response versus capacitating media,"human spermatozoa [1]; 1 nM 1,25(OH)2D3, non-capacitating media, data not shown",lower amplitude
same,length of repolarisation phase,human spermatozoa [1]; [6],4 min
same,maximum amplitude of calcium increase versus baseline,human spermatozoa [1]; [6],7 fold
same,increase in intracellular calcium ([Ca2+]i) from baseline calcium level,"human spermatozoa [1]; 1,25(OH)2D3 100 μM-10 μM (so in the source), motile spermatozoa",5-10 fold
same,calcium response,"human spermatozoa [1]; 1,25(OH)2D3 added 9 min after initiation of thapsigargin 4 μM",unable to elicit a substantial calcium response
same,calcium response,"human spermatozoa [1]; 1,25(OH)2D3 in spermatozoa exposed to 2 μM U73122",unable to induce a rapid increase
same,time to max amplitude of the normal rapid calcium response,"human spermatozoa [1]; 1,25(OH)2D3 without inhibitor",within one minute
same,duration of plateau phase of [Ca2+]i,"human spermatozoa [1]; <10 nM 1,25(OH)2D3",up to 50 sec
same,change in Ca2+ concentration,"human spermatozoa [1]; Example 4, 1 nM (FIG. 4)",instant increase
same,start of calcium increase in the neck region,"human spermatozoa [1]; after addition of 1,25(OH)2D3",≤ 5 s
same,increase in [Ca2+]i,human spermatozoa [1]; [7],could not induce an increase
same,calcium response,human spermatozoa [1]; calcium free media without EGTA,marked response
same,increase in [Ca2+]i after addition of 1 mM calcium,human spermatozoa [1],comparable to the increase observed in the normal calcium containing Krebs Ringer solution
same,duration of plateau phase of [Ca2+]i,"human spermatozoa [1]; higher 1,25(OH)2D3 concentrations",50 to 300 s
same,duration of intracellular calcium increase before return to baseline,human spermatozoa [1]; physiological concentrations,up to 90 seconds
same,effect of pre-treatment on the calcium effect of progesterone,"human spermatozoa [1]; pre-treatment with 1,25(OH)2D3, then 10 μM progesterone",could not be abrogated
same,change in proportion of motile sperm,"human spermatozoa [2]; 1 nM calcitriol, 24 hours at room temperature, with and without percoll, not substantially different from vehicle",modest decrease
same,motile sperm,"human spermatozoa [2]; 1 nM, 60 minutes, isolated by percoll gradient centrifugation (from 62%)",65%
same,sperm motility (mean),"human spermatozoa [2]; 1 nM, 60 minutes, no percoll centrifugation (vehicle mean 50)",48
same,time spermatozoa remain motile after treatment,human spermatozoa [2]; Example 5 + FIG. 9,at least 24 hours
same,mean number of spermatozoa bound to each oocyte,"[3]; 1 nM, 5 donors, all pretreatments (vehicle mean 52)",74
same,mean difference in sperm bound versus vehicle,"[3]; 1 nM, 5 donors, all pretreatments, p=0.022",43%
same,average improvement of sperm-egg binding versus vehicle,"[3]; 1 nM, isolated with percoll gradient centrifugation, p=0.027",28%
same,difference in sperm-egg binding versus vehicle,"[3]; 1 nM, not separated by percoll gradient centrifugation, p=0.139",60%
same,increase in sperm-egg binding,"[3]; patient 3 (low semen quality), following percoll gradient centrifugation",33%
same,change in sperm-egg binding,"[3]; patient 3 (low semen quality), not separated by Percoll centrifugation",modest decline
same,median decrease in sperm motility compared with control,human spermatozoa [4]; 10^-5M,15%
same,median increase in sperm motility,"human spermatozoa [4]; 10^-9M, p=0.006",7%
same,increase in median sperm motility (ABC),"human spermatozoa [4]; 10^-14M to 10^-9M, non-capacitating conditions",2-7%
same,increase in mean sperm motility,"human spermatozoa [4]; 17 men, 10^-9M for 30 min at room temperature, p=0.010",2.9%
same,sperm motility compared with control,human spermatozoa [4]; concentrations above 10^-7M,decreased motility compared with control
same,"median acrosome reacted spermatozoa, VD group","human spermatozoa [5]; 10^-9 M, capacitating conditions (control group 12%)",21%
same,median percentage of spermatozoa with an equatorial band (eq. AR),"human spermatozoa [5]; 10^-9 M, capacitating conditions (from 4.7%), p=0.214",5.3%
same,average increase in number of acrosome reacted spermatozoa,"human spermatozoa [5]; 10^-9 M, capacitating conditions, p=0.024",6%
same,"acrosome reacted spermatozoa, VD treated","human spermatozoa [5]; non-capacitating conditions (NaCl), 6 men (control 3.7%), not significant",4.2%
CC(=O)[C@H]1CC[C@H]2[C@@H]3CCC4=CC(=O)CC[C@]4(C)[C@H]3CC[C@]12C [progesterone],time until calcium level restored to baseline after initiation of treatment,human spermatozoa [1]; 10 μM progesterone after nifedipine 10 μM pretreatment,9 min
same,increase in [Ca2+]i,human spermatozoa [1]; [7],could not induce an increase
same,increase in [Ca2+]i after addition of 1 mM calcium,human spermatozoa [1],comparable to the increase observed in the normal calcium containing Krebs Ringer solution
